These results are taken from article PMC10734441, “Comparative biodegradation analysis of three compostable polyesters by a marine microbial community” (Applied and Environmental Microbiology, 2023).

Test in all cases: 4-nitrophenol release, absorbance at […] nm, nonlinear regression
Common to all, as to type: biochemical, Pseudomonas sp. (bin 31)
What all share (conditions): phosphate-buffered saline pH 7.4; 20°C (methods: room temperature); 0.1-2.4 mM substrate

One experiment deals with T1, Ple-tan1.
T1 construct: codon-optimized synthetic gene in pCold II, E. coli Origami (DE3), His-tag purified plus size exclusion

A further experiment concerns T2, Ple-tan2.
T2 construct: codon-optimized synthetic gene in pCold II, E. coli Origami (DE3), His-tag purified

The subject of a further experiment is T3, Ple-solo.
T3 construct: codon-optimized synthetic gene in pCold II, E. coli Origami (DE3), His-tag purified plus size exclusion

Usually Km stands for the substrate concentration at which the rate is half of its maximum. As for `CCCC(=O)Oc1ccc([N+](=O)[O-])cc1` [para-nitrophenyl butyrate], the results for the Km in the experiment on Ple-tan1, with Ple-tan2 and with Ple-solo were 454 ± 54 µM, 1420 ± 94 µM and 254 ± 55 µM, respectively.
